Counter-ions that a name gives are not always drawn.
Molecular target: T1, human H4 receptor (Homo sapiens, UniProt Q9H3N8)
T1 construct: expressed in transfected cells
Test: Binding Assay on Recombinant Human Histamine H4 Receptor
Conditions: Table 2; [3H] histamine competition binding, membranes of SK-N-MC cells transfected with human H4 receptor; average of results
Outline: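 Radioligand binding used membranes from SK-N-MC cells stably or transiently expressing human H4, prepared in 50 mM Tris/5 mM EDTA. Nonspecific binding was defined with 100 μM histamine. Bound radioactivity was counted after filtration on PEI-treated GF/C filters, and ">" values are the highest concentration tested.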

Structure (SMILES) | Ki
CCCCc1cc(N2C[C@H]3CN(C)C[C@H]3C2)nc(N)n1 [Example 139, 4-Butyl-6-(cis-5-methyl-hexahydro-pyrrolo[3,4-c]pyrrol-2-yl)-pyrimidin-2-ylamine] | 138 nM
CCCCc1cc(N2C[C@H]3CNC[C@H]3C2)nc(N)n1 [Example 140, Butyl-6-(cis-hexahydro-pyrrolo[3,4-c]pyrrol-2-yl)-pyrimidin-2-ylamine] | 397 nM
CCCCc1cc(N2CC3CCCNC3C2)nc(N)n1 (stereo not drawn) [Example 141, 4-Butyl-6-(cis-octahydro-pyrrolo[3,4-b]pyridin-6-yl)-pyrimidin-2-ylamine] | 84 nM
CCCCc1cc(N2CCNCC2)nc(N)n1 [Example 142, 4-Butyl-6-piperazin-1-yl-pyrimidin-2-ylamine] | 3 nM
CCCCc1cc(N2CC3CCC(C2)N3)nc(N)n1 [Example 143, 4-Butyl-6-(3,8-diaza-bicyclo[3.2.1]oct-3-yl)-pyrimidin-2-ylamine] | 13 nM
CCCc1cc(N2CCN(C)CC2)nc(N)n1 [Example 144, 4-(4-Methyl-piperazin-1-yl)-6-propyl-pyrimidin-2-ylamine] | 6 nM
CCCc1cc(N2C[C@H]3CN(C)C[C@H]3C2)nc(N)n1 [Example 145, 4-(cis-5-Methyl-hexahydro-pyrrolo[3,4-c]pyrrol-2-yl)-6-propyl-pyrimidin-2-ylamine] | 117 nM
CC(C)Cc1cc(N2CCN(C)CC2)nc(N)n1 [Example 146, 4-Isobutyl-6-(4-methyl-piperazin-1-yl)-pyrimidin-2-ylamine] | 3 nM
CC(C)Cc1cc(N2CCNCC2)nc(N)n1 [Example 147, 4-Isobutyl-6-piperazin-1-yl-pyrimidin-2-ylamine] | 4 nM
CN[C@@H]1CCN(c2cc(CC(C)C)nc(N)n2)C1 [Example 148, (R)-4-Isobutyl-6-(3-methylamino-pyrrolidin-1-yl)-pyrimidin-2-ylamine] | 1 nM
CC(C)Cc1cc(N2CC[C@@H](N)C2)nc(N)n1 [Example 149, (R)-4-(3-Amino-pyrrolidin-1-yl)-6-isobutyl-pyrimidin-2-ylamine] | 3 nM
CCc1cc(N2CC[C@H](NC)C2)nc(N)n1 [Example 150, (S)-4-Ethyl-6-(3-methylamino-pyrrolidin-1-yl)-pyrimidin-2-ylamine] | 85 nM
CC1(c2cc(N3CCNCC3)nc(N)n2)CCOCC1 [Example 153, 4-(4-Methyl-tetrahydro-pyran-4-yl)-6-piperazin-1-yl-pyrimidin-2-ylamine] | 97 nM
CN1CCN(c2cc(C3(C)CCOCC3)nc(N)n2)CC1 [Example 154, 4-(4-Methyl-piperazin-1-yl)-6-(4-methyl-tetrahydro-pyran-4-yl)-pyrimidin-2-ylamine] | 49 nM
CC1(c2cc(N3C[C@H]4CNC[C@H]4C3)nc(N)n2)CCOCC1 [Example 170, 4-(cis-Hexahydro-pyrrolo[3,4-c]pyrrol-2-yl)-6-(4-methyl-tetrahydro-pyran-4-yl)-pyrimidin-2-ylamine] | 5890 nM
Nc1nc(C2Cc3ccccc3C2)cc(N2C[C@H]3CNC[C@H]3C2)n1 [Example 173, 4-(cis-Hexahydro-pyrrolo[3,4-c]pyrrol-2-yl)-6-indan-2-yl-pyrimidin-2-ylamine] | 2070 nM
Nc1nc(CCC(F)(F)F)cc(N2CCNCC2)n1 [Example 182, 4-piperazin-1-yl-6-(3,3,3-trifluoro-propyl)-pyrimidin-2-ylamine] | 20 nM
COc1c(C2CCCC2)nc(N)nc1N1C[C@H]2CCCN[C@H]2C1 [Example 188, (R,R)-4-Cyclopentyl-5-methoxy-6-(octahydro-pyrrolo[3,4-b]pyridin-6-yl)-pyrimidin-2-ylamine] | 18 nM
Nc1nc(C2CCOC2)cc(N2CC3CCCNC3C2)n1 (stereo not drawn) [Example 190, 4-(cis-Octahydro-pyrrolo[3,4-b]pyridin-6-yl)-6-(tetrahydro-furan-3-yl)-pyrimidin-2-ylamine] | 11 nM

Next, values leading:

Ki | Structure (SMILES)
82 nM | CN[C@@H]1CCN(c2cc(C3(C)CCOCC3)nc(N)n2)C1 [Example 155, (R)-4-(3-Methylamino-pyrrolidin-1-yl)-6-(4-methyl-tetrahydro-pyran-4-yl)-pyrimidin-2-ylamine]
12 nM | Nc1nc(C2CC2c2ccccc2)cc(N2CCNCC2)n1 (stereo not drawn) [Example 156, 4-(trans-2-Phenyl-cyclopropyl)-6-piperazin-1-yl-pyrimidin-2-ylamine]
8 nM | CN1CCN(c2cc(C3CC3c3ccccc3)nc(N)n2)CC1 (stereo not drawn) [Example 158, 4-(4-Methyl-piperazin-1-yl)-6-(trans-2-phenyl-cyclopropyl)-pyrimidin-2-ylamine]
42 nM | NCCNc1cc(C2CC2c2ccccc2)nc(N)n1 (stereo not drawn) [Example 159, N^4-(2-Amino-ethyl)-6-(trans-2-phenyl-cyclopropyl)-pyrimidine-2,4-diamine]
24 nM | Nc1nc(C2Cc3ccccc3C2)cc(N2CC(N)C2)n1 [Example 161, 4-(3-Amino-azetidin-1-yl)-6-indan-2-yl-pyrimidin-2-ylamine salt]
5 nM | Nc1nc(C2Cc3ccccc3C2)cc(N2CC[C@@H](N)C2)n1 [Example 162, (R)-4-(3-Amino-pyrrolidin-1-yl)-6-indan-2-yl-pyrimidin-2-ylamine]
2 nM | CN1CCN(c2cc(C3Cc4ccccc4C3)nc(N)n2)CC1 [Example 163, 4-Indan-2-yl-6-(4-methyl-piperazin-1-yl)-pyrimidin-2-ylamine]
4 nM | CN[C@@H]1CCN(c2cc(C3Cc4ccccc4C3)nc(N)n2)C1 [Example 164, (R)-4-Indan-2-yl-6-(3-methylamino-pyrrolidin-1-yl)-pyrimidin-2-ylamine]
2 nM | Nc1nc(C2Cc3ccccc3C2)cc(N2CCNCC2)n1 [Example 165, 4-Indan-2-yl-6-piperazin-1-yl-pyrimidin-2-ylamine]
52 nM | Nc1nc(Cc2ccccc2)cc(N2CC(N)C2)n1 [Example 166, 4-(3-Amino-azetidin-1-yl)-6-benzyl-pyrimidin-2-ylamine]
78 nM | Nc1nc(Cc2ccccc2)cc(N2CC[C@@H](N)C2)n1 [Example 167, (R)-4-(3-Amino-pyrrolidin-1-yl)-6-benzyl-pyrimidin-2-ylamine]
46 nM | NCCNc1cc(C2Cc3ccccc3C2)nc(N)n1 [Example 168, N^4-(2-Amino-ethyl)-6-indan-2-yl-pyrimidine-2,4-diamine]
396 nM | CN[C@@H]1CCN(c2cc(C3Cc4ccccc4O3)nc(N)n2)C1 (stereo partly drawn) [Example 169, (R)-4-(2,3-Dihydro-benzofuran-2-yl)-6-(3-methylamino-pyrrolidin-1-yl)-pyrimidin-2-ylamine]
106 nM | Nc1nc(C2Cc3ccccc3O2)cc(N2CCNCC2)n1 (stereo not drawn) [Example 171, 4-(2,3-Dihydro-benzofuran-2-yl)-6-piperazin-1-yl-pyrimidin-2-ylamine]
932 nM | Nc1nc(C2Cc3ccccc3O2)cc(N2CC(N)C2)n1 (stereo not drawn) [Example 172, 4-(3-Amino-azetidin-1-yl)-6-(2,3-dihydro-benzofuran-2-yl)-pyrimidin-2-ylamine]
138 nM | CC1(c2cc(N3CC[C@@H](N)C3)nc(N)n2)CCOCC1 [Example 174, (R)-4-(3-Amino-pyrrolidin-1-yl)-6-(4-methyl-tetrahydro-pyran-4-yl)-pyrimidin-2-ylamine]
85 nM | Nc1nc(C2CCOCC2)cc(N2CC[C@@H](N)C2)n1 [Example 175, (R)-4-(3-Amino-pyrrolidin-1-yl)-6-(tetrahydro-pyran-4-yl)-pyrimidin-2-ylamine]
335 nM | NCCNc1cc(C2CCOCC2)nc(N)n1 [Example 176, N^4-(2-Amino-ethyl)-6-(tetrahydro-pyran-4-yl)-pyrimidine-2,4-diamine]
1030 nM | CN(CCN)c1cc(C2CCOCC2)nc(N)n1 [Example 177, N^4-(2-Amino-ethyl)-N^4-methyl-6-(tetrahydro-pyran-4-yl)-pyrimidine-2,4-diamine]
9 nM | Nc1nc(CCc2ccccc2)cc(N2CC[C@@H](N)C2)n1 [Example 178, (R)-4-(3-Amino-pyrrolidin-1-yl)-6-phenethyl-pyrimidin-2-ylamine]
6 nM | CN1CCN(c2cc(CCc3ccccc3)nc(N)n2)CC1 [Example 179, 4-(4-Methyl-piperazin-1-yl)-6-phenethyl-pyrimidin-2-ylamine]
8 nM | CN[C@@H]1CCN(c2cc(CCc3ccccc3)nc(N)n2)C1 [Example 180, (R)-4-(3-Methylamino-pyrrolidin-1-yl)-6-phenethyl-pyrimidin-2-ylamine]
8 nM | CN1CCN(c2cc(CCC(F)(F)F)nc(N)n2)CC1 [Example 181, 4-(4-Methyl-piperazin-1-yl)-6-(3,3,3-trifluoro-propyl)-pyrimidin-2-ylamine]
16 nM | CN[C@@H]1CCN(c2cc(CCC(F)(F)F)nc(N)n2)C1 [Example 183, (R)-4-(3-Methylamino-pyrrolidin-1-yl)-6-(3,3,3-trifluoro-propyl)-pyrimidin-2-ylamine]
13 nM | Nc1nc(CCC(F)(F)F)cc(N2CC[C@@H](N)C2)n1 [Example 184, (R)-4-(3-Amino-pyrrolidin-1-yl)-6-(3,3,3-trifluoro-propyl)-pyrimidin-2-ylamine]
300 nM | COc1c(C2CCCC2)nc(N)nc1N1CCN(C)CC1 [Example 185, 4-Cyclopentyl-5-methoxy-6-(4-methyl-piperazin-1-yl)-pyrimidin-2-ylamine]
213 nM | COc1c(C2CCCC2)nc(N)nc1N1CCNCC1 [Example 186, 4-Cyclopentyl-5-methoxy-6-piperazin-1-yl-pyrimidin-2-ylamine]
10 nM | CN[C@@H]1CCN(c2nc(N)nc(C3CCCC3)c2OC)C1 [Example 187, (R)-4-Cyclopentyl-5-methoxy-6-(3-methylamino-pyrrolidin-1-yl)-pyrimidin-2-ylamine]
6 nM | CN(CCN)c1cc(C2CCOC2)nc(N)n1 (stereo not drawn) [Example 189, N^4-(2-Amino-ethyl)-N^4-methyl-6-(tetrahydro-furan-3-yl)-pyrimidine-2,4-diamine]

Source: patent US8716475B2, “2-aminopyrimidine modulators of the histamine H4 receptor” (Janssen Pharmaceutica NV, priority 2007, dated 2014)
